Entries after “also recorded” stand apart in the source; their conditions may differ. Read-outs that look alike come from different tables or passages of the source.
What was measured:
γ-secretase [1] = target: T1, γ-secretase (Homo sapiens, UniProt P49768); conditions: read-out: Cell-free; cited from earlier work
γ-secretase [2] = target: T1, γ-secretase; conditions: read-out: In cells; cited from earlier work
γ-secretase active site = γ-secretase active site (Homo sapiens, UniProt P49768); conditions: cited from earlier work
gamma-secretase = gamma-secretase (Homo sapiens, UniProt P49768); conditions: recombinant APP C100 substrate; cited from earlier work
[3] = tested on: oligodendrocytes in OPC-RGC reaggregate cocultures; experiment: OPC-RGC reaggregate coculture myelination (MBP/NG2 immunostaining); type: cell-based, rat
Protocol: Purification of RGCs. Retinal ganglion cells (RGCs) were purified to >99.5% homogeneity from two- to three-litters of 5-day-old (P5) rat retinae by immunopanning as previously described. Briefly, retinae were digested with papain at 37° C. Following gentle trituration, cells were resuspended in a panning buffer containing insulin (5 μg/ml) and then incubated at room temperature with rabbit anti-macrophage antibodies. Retinal cells were incubated at room temperature sequentially on three immunopanning dishes: two coated with anti-rabbit secondary antibodies (to negatively select macrophages) and the third with T11D7 anti-Thy1 mAb. RGCs were released from the final panning dish with trypsin (Sigma).
To produce reaggregates, RGCs were plated at high density (>1,000 cells/μl) in 400 μl RGC growth medium in wells an 8-well chamber-slide (Nunc) coated with a surface that is not strongly adherent for RGCs (Permanox). One- to three-hours after plating, RGCs were resuspended gently to promote interaction and reaggregation, and this was repeated the following day. Following two days of culture at high density, reaggregates were collected and allowed to settle to separate them from dead RGCs, non-aggregated cells, and small reaggregates (<10 cells). […]

PS-2 = PS-2 (Homo sapiens, UniProt P49810); conditions: cited from earlier work
[4] = tested on: dorsal root ganglion (DRG) neurons and oligodendrocytes; experiment: Myelination of dorsal root ganglion neurons by oligodendrocytes; type: cell-based
PS-1 = PS-1 (Homo sapiens, UniProt P49768); conditions: cited from earlier work
[5] = tested on: Notch1f/f OPCs on RGC reaggregates; experiment: Myelination by floxxed Notch1 OPCs (AdCre/AdEmpty) cocultured with RGC reaggregates; type: cell-based, mouse; conditions: 1 μM DAPT, six days of coculture, with or without glial Notch1
Protocol: FIG. 5. […] (A-C) Infection of OPCs from floxxed Notch1 mice (Notch1^f/f) with a recombinant adenovirus for expression of Cre recombinase (AdCre) results in rapid reduction of Notch1 protein. Notch1^f/f-OPCs, purified by immunopanning with anti-PDGFRα, were cultured for 2 days prior to infection for 24 hours with AdCre or a control virus (AdEmpty) at a multiplicity of infection of 10. The next day, cells were re-plated on RGC reaggregate cultures and on coverslips for analysis of Notch1 knockout, which was assessed by immunostaining (a,b) and Western blot analysis 24 hours later (c).
Conditional knockout cells and infection with AdCre. OPCs were purified from P9 Notch1 conditional knockout (gift of A. Rosenthal, Genentech) and presenilin double conditional knockout (gift of Jie Shen, Brigham and Women's hospital) mouse brains by a slight modification of the panning protocol for rat cells as described previously. The first panning dish was coated with mouse anti-mouse Thy1.2 (Serotec) rather than Ran-2. Mouse OPCs were plated on PDL-coated flasks in defined proliferation medium (DMEM supplemented with B27, insulin, 10 ng/ml PDGF, 1 ng/ml NT3, 10 ng/ml CNTF, and forskolin) for 2 days and then passaged onto PDL-coated tissue culture plates at a density of 1 million cells per plate. […]

| Compound | IC50 (γ-secretase [1]) [nM] | IC50 (γ-secretase [2]) [nM] | Displacement (γ-secretase active site) | also measured |
| --- | --- | --- | --- | --- |
| COC(=O)[C@@H](NC(=O)[C@H](CC(C)C)NC(=O)N(Cc1ccccc1)C[C@@H](O)[C@H](Cc1ccccc1)NC(=O)OC(C)(C)C)C(C)C [III-31-C] | 10 | 200 | YES |  |
| (Z-LL)2-ketone | 30000 | > 100000 | YES |  |
| CSc1ccc(/C=C2/C(C)=C(CC(=O)O)c3cc(F)ccc32)cc1 [Sulindac sulfide] |  |  |  | inhibition of gamma(42)-secretase activity (gamma-secretase): preferentially inhibits |
| C[C@H](NC(=O)Cc1cc(F)cc(F)c1)C(=O)N[C@H](C(=O)OC(C)(C)C)c1ccccc1 [DAPT] | 10 | 20 | YES | proportion of MBP+ oligodendrocytes that formed myelin segments ([3]; 1 μM DAPT, six-day cocultures): significantly increased; also recorded: the majority of oligodendrocytes myelinate; proportion of NG2+ OPCs or MBP+ oligodendrocytes ([3]; cocultures with DAPT): did not consistently alter; inhibition of PS-2 (PS-2): inhibits; myelination of DRG neurons by oligodendrocytes [4]: profoundly enhanced myelination; inhibition of PS-1 (PS-1): inhibits; myelination (proportion of cells that myelinate) [5]: enhances myelination either in the presence (AdEmpty) or absence (AdCre) of glial Notch1; competition for the γ-secretase active site in a displacement assay (γ-secretase active site): can compete moderately |
| C[C@@H](NC(=O)Cc1cc(F)cc(F)c1)C(=O)N[C@H]1N=C(c2ccccc2)c2ccccc2N(C)C1=O [Compound E] | 3 | 0.3 | YES |  |
| Boc-D-Val-Gly-Aib-D-Val-D-Val-D-He-Aib-D-Thr(OBn)-D-Val-Aib-OMe [D-Helical peptide 294] | 100 | 3000 |  |  |
| CCC(C)C(NC(=O)C(CCCCNC(=O)OC(C)(C)C)NC(=O)OC(C)(C)C)C(=O)NC(CC(C)C)C1CO1 (stereo not drawn) [Epoxide] | 20000 | 20000 |  |  |

Source: US7973011B2, “Blockade of gamma-secretase activity to promote myelination by oligodendrocytes” (The Board of Trustees of the Leland Stanford Junior …, priority 2006, dated 2011)
